From US12344826B2, “Apparatus and methods for in vitro preclinical human trials” (THE GEORGE WASHINGTON UNIVERSITY, A CONGRESSIONALLY …, priority 2017, dated 2025)

Columns and labels:
[1] = test system: action potential (AP) morphology; conditions: blebbistatin 10 μM used to immobilize tissue; cited from earlier work
human cardiac slices = experiment: Acute vs chronic phenylephrine in cultured human cardiac slices, electrophysiology by optical mapping; type: cell-based; conditions: 3 μM phenylephrine, acute application vs slices cultured 24 hours in drug medium
Protocol: Utilizing cultured slices and an adult dosage of phenylephrine, a widely used selective α1-adrenergic receptor agonist, a model to study chronic drug effects in human cardiac slices is developed. Slice electrophysiology was first acutely measured using optical mapping after application of 3 μM phenylephrine.

| SMILES | effects in action potential (AP) morphology [1] | Two electrophysiology parameters, acute vs chronic stimulation modes (human cardiac slices) |
| --- | --- | --- |
| Cc1ccc2c(c1)C(=O)C1(O)CCN(c3ccccc3)C1=N2 (centres unmarked) [blebbistatin] | no significant effects | – |
| CNC[C@H](O)c1cccc(O)c1 [phenylephrine] | – | substantial difference |
